From patent US11312706B2, “Cyclohexyl acid pyrazole azines as LPA antagonists” (BRISTOL-MYERS SQUIBB COMPANY, priority 2017, dated 2022) come the findings set out here.

As usually defined, the IC50 is the concentration at which inhibition is half-maximal.

For this assay, the target named is T1, human LPA1 (Homo sapiens, UniProt Q92633).
T1 construct: expressed in transfected cells; host or cells: Chinese hamster ovary (CHO) cells
T1 sequence (Q92633 whole entry): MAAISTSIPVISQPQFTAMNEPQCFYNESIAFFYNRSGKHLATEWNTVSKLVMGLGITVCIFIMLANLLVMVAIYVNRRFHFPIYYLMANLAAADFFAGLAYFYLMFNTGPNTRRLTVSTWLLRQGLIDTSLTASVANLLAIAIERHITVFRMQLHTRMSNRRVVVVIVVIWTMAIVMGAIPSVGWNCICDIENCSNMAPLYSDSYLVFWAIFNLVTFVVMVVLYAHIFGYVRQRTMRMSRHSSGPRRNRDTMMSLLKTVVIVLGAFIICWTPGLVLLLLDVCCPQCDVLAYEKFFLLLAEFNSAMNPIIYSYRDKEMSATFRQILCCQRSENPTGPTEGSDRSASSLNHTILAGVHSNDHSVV
Put plainly: LPA1 functional antagonist assay (LPA-induced calcium flux). The format is cell-based. Conditions: CHO cells overexpressing human LPA1, 10 nM LPA, read-out: hLPA1 IC50. The protocol:
The effectiveness of compounds of the present invention as LPA1 inhibitors can be determined in an LPA1 functional antagonist assay as follows:
Chinese hamster ovary cells overexpressing human LPA1 were plated overnight (15,000 cells/well) in poly-D-lysine coated 384-well microplates (Greiner bio-one, Cat #781946) in DMEM/F12 medium (Gibco, Cat #11039). Following overnight culture, cells were loaded with calcium indicator dye (AAT Bioquest Inc, Cat #34601) for 30 minutes at 37° C. The cells were then equilibrated to room temperature for 30 minutes before the assay. Test compounds solubilized in DMSO were transferred to 384 well non-binding surface plates (Corning, Cat #3575) using the Labcyte Echo acoustic dispense and diluted with assay buffer [1×HBSS with calcium/magnesium (Gibco Cat #14025-092), 20 mM HEPES (Gibco Cat #15630-080) and 0.1% fatty acid free BSA (Sigma Cat #A9205)] to a final concentration of 0.5% DMSO. Diluted compounds were added to the cells by FDSS6000 (Hamamatsu) at final concentrations ranging from 0.08 nM to 5 μM. and were then incubated for 20 min at room temperature at which time LPA (Avanti Polar Lipids Cat #857130C) was added at final concentrations of 10 nM to stimulate the cells. The compound IC50 value was defined as the concentration of test compound which inhibited 50% of the calcium flux induced by LPA alone. IC50 values were determined by fitting data to a 4-parameter logistic equation (GraphPad Prism, San Diego Calif.).
On to `Cn1ncc(-c2ccc(O[C@H]3CCC[C@H](C(=O)O)C3)cn2)c1CNc1nccc(-c2ccccc2)n1` (relative stereo) [Example 1, Trans-3-((6-(1-methyl-5-(((4-phenylpyrimidin-2-yl)amino)methyl)-1H-pyrazol-4-yl)pyridin-3-yl)oxy)cyclohexane-1-carboxylic acid], for which the IC50 was determined as 122 nM.

Regarding `Cn1ncc(-c2ccc(O[C@H]3CCC[C@H](C(=O)O)C3)cn2)c1COc1cccc(-c2ccccc2)c1` (relative stereo) [Example 30, Trans-3-((6-(5-(([1,1′-biphenyl]-3-yloxy)methyl)-1-methyl-1H-pyrazol-4-yl)pyridin-3-yl)oxy)cyclohexane-1-carboxylicacid], the 50% inhibitory concentration (IC50) was determined as 104 nM.

On to `Cc1nc(-c2cnn(C)c2CNc2nccc(OC(C)C)n2)ncc1O[C@H]1CCC[C@H](C(=O)O)C1` [Example 2, (1S,3S)-3-((2-(5-(((4-Isopropoxypyrimidin-2-yl)amino)methyl)-1-methyl-1H-pyrazol-4-yl)-4-methylpyrimidin-5-yl)oxy)cyclohexane-1-carboxylic acid], for which the IC50 was found to be 29 nM.

As to `CCOc1ccnc(NCc2c(-c3ncc(O[C@H]4CCC[C@H](C(=O)O)C4)c(C)n3)cnn2C)n1` [Example 3, (1S,3S)-3-((2-(5-(((4-ethoxypyrimidin-2-yl)amino)methyl)-1-methyl-1H-pyrazol-4-yl)-4-methyl-pyrimidin-5-yl)oxy)cyclohexane-1-carboxylic acid], the IC50 is 22 nM.

For `Cc1nc(-c2cnn(C)c2CNc2nccc(-c3ccccc3)n2)ccc1O[C@H]1CCC[C@H](C(=O)O)C1` [Example 4, (1S,3S)-3-((2-methyl-6-(1-methyl-5-(((4-phenylpyrimidin-2-yl)amino)methyl)-1H-pyrazol-4-yl)pyridin-3-yl)oxy)cyclohexanecarboxylic acid], the IC50 was 54 nM.

On to `Cc1cc(-c2ccccn2)nc(NCc2c(-c3ccc(O[C@H]4CCC[C@H](C(=O)O)C4)c(C)n3)cnn2C)n1` [Example 5, (1S,3S)-3-((2-methyl-6-(1-methyl-5-(((4-methyl-6-(pyridin-2-yl)pyrimidin-2-yl)amino)methyl)-1H-pyrazol-4-yl)pyridin-3-yl)oxy)cyclohexanecarboxylic acid], for which the IC50 was found to be 217 nM.

Consider `COc1ccnc(NCc2c(-c3ncc(O[C@H]4CCC[C@H](C(=O)O)C4)c(C)n3)cnn2C)n1` [Example 6, (1S,3S)-3-((2-(5-(((4-methoxy-pyrimidin-2-yl)amino)methyl)-1-methyl-1H-pyrazol-4-yl)-4-methylpyrimidin-5-yl)oxy)cyclohexane-1-carboxylic acid], for which the IC50 stood at 74 nM.

As for `Cc1nc(-c2cnn(C)c2CNc2nccc(OC3CC3)n2)ncc1O[C@H]1CCC[C@H](C(=O)O)C1` [Example 7, (1S,3S)-3-((2-(5-(((4-cyclopropoxy-pyrimidin-2-yl)amino)methyl)-1-methyl-1H-pyrazol-4-yl)-4-methylpyrimidin-5-yl)oxy)cyclohexane-1-carboxylic acid], the IC50 was 22 nM.

Take `Cc1nc(-c2cnn(C)c2CNc2nccc(OCC(C)(F)F)n2)ncc1O[C@H]1CCC[C@H](C(=O)O)C1` [Example 8, (1S,3S)-3-((2-(5-(((4-(2,2-difluoro-propoxy)pyrimidin-2-yl)amino)methyl)-1-methyl-1H-pyrazol-4-yl)-4-methylpyrimidin-5-yl)oxy)cyclo-hexane-1-carboxylic acid]: the IC50 was found to be 33 nM.

For `Cc1nc(-c2cnn(C)c2CNc2nccc(Oc3ccccc3)n2)ncc1O[C@H]1CCC[C@H](C(=O)O)C1` [Example 9, (1S,3S)-3((4-methyl-2-(1-methyl-5-(((4-phenoxypyrimidin-2-yl)amino)-methyl)-1H-pyrazol-4-yl)pyrimidin-5-yl)oxy)cyclohexane-1-carboxylic acid], the IC50 came to 32 nM.

`Cc1nc(-c2cnn(C)c2CNc2nccc(C(C)C)n2)ncc1O[C@H]1CCC[C@H](C(=O)O)C1` [Example 10, (1S,3S)-3-((2-(5-(((4-isopropyl-pyrimidin-2-yl)amino)methyl)-1-methyl-1H-pyrazol-4-yl)-4-methyl-pyrimidin-5-yl)oxy)cyclohexane carboxylic acid]: the IC50 was 47 nM.

Turning to `Cc1nc(-c2cnn(C)c2CNc2nccc(C(C)(C)C)n2)ncc1O[C@H]1CCC[C@H](C(=O)O)C1` [Example 11, (1S,3S)-3-((2-(5-(((4-(tert-butyl)pyrimidin-2-yl)amino)methyl)-1-methyl-1H-pyrazol-4-yl)-4-methyl-pyrimidin-5-yl)oxy)cyclohexane carboxylic acid], the IC50 was found to be 50 nM.

Consider `Cc1nc(-c2cnn(C)c2CNc2nccc(C3CC3)n2)ncc1O[C@H]1CCC[C@H](C(=O)O)C1` [Example 12, (1S,3S)-3-((2-(5-(((4-cyclopropyl-pyrimidin-2-yl)amino)methyl)-1-methyl-1H-pyrazol-4-yl)-4-methyl-pyrimidin-5-yl)oxy)cyclohexane-1-carboxylic acid], for which the IC50 worked out at 172 nM.

With `Cc1nc(-c2cnn(C)c2CNc2nccc(-c3ccccc3)n2)ncc1O[C@H]1CCC[C@H](C(=O)O)C1` [Example 13, (1S,3S)-3-((4-methyl-2-(1-methyl-5-(((4-phenylpyrimidin-2-yl)amino)methyl)-1H-pyrazol-4-yl)pyrimidin-5-yl)oxy)cyclohexanecarboxylic acid], the IC50 stood at 33 nM.

In the case of `Cc1nc(-c2cnn(C)c2CNc2ncnc(C3CCCC3)n2)ncc1O[C@H]1CCC[C@H](C(=O)O)C1` [Example 15, (1S,3S)-3-((2-(5-(((4-cyclopenty1-1,3,5-triazin-2-yl)amino)methyl)-1-methyl-1H-pyrazol-4-yl)-4-methylpyrimidin-5-yl)oxy)cyclohexane carboxylic acid], the IC50 stood at 148 nM.

Consider `Cc1nc(-c2cnn(C)c2CNc2nccc(OCC(F)(F)F)n2)ncc1O[C@H]1CCC[C@H](C(=O)O)C1` [Example 16, (1S,3S)-3-((4-methyl-2-(1-methyl-5-(((4-(2,2,2-trifluoroethoxy)pyrimidin-2-yl)amino)methyl)-1H-pyrazol-4-yl)pyrimidin-5-yl)oxy)cyclohexane-1-carboxylic acid], for which the IC50 was 12 nM.

For `Cc1nc(-c2cnn(C)c2CNc2nccc(-c3ccccn3)n2)ncc1O[C@H]1CCC[C@H](C(=O)O)C1` [Example 17, (1S,3S)-3-((4-methyl-2-(1-methyl-5-(((4-(pyridin-2-yl)pyrimidin-2-yl)amino)methyl)-1H-pyrazol-4-yl)pyrimidin-5-yl)oxy)cyclohexane-1-carboxylic acid], the IC50 turned out to be 79 nM.

On to `Cc1nc(-c2cnn(C)c2Nc2nccc(OC(C)C)n2)ncc1O[C@H]1CCC[C@H](C(=O)O)C1` [Example 18, (S,3S)-3-((2-(5-((4-isopropoxypyrimidin-2-yl)amino)-1-methyl-1H-pyrazol-4-yl)-4-methyl-pyrimidin-5-yl)oxy)cyclohexane-1-carboxylic acid], for which the IC50 came to 1010 nM.

`CCCc1ccnc(Nc2c(-c3ncc(O[C@H]4CCC[C@H](C(=O)O)C4)c(C)n3)cnn2C)n1` [Example 19, (1S,3S)-3-((4-methyl-2-(1-methyl-5-((4-propylpyrimidin-2-yl)amino)-1H-pyrazol-4-yl)pyrimidin-5-yl)oxy)cyclohexane-1-carboxylic acid]: the IC50 turned out to be 1410 nM.

Regarding `CCCOc1ccnc(Nc2c(-c3ncc(O[C@H]4CCC[C@H](C(=O)O)C4)c(C)n3)cnn2C)n1` [Example 20, (1S,3S)-3-((4-methyl-2-(1-methyl-5-((4-propoxypyrimidin-2-yl)amino)-1H-pyrazol-4-yl)pyrimidin-5-yl)oxy)cyclohexane-1-carboxylic acid], the IC50 was 1230 nM.

In the case of `CCOc1ccnc(NCc2c(-c3ncc(O[C@H]4CCC[C@H](C(=O)O)C4)c(CC)n3)cnn2C)n1` [Example 21, (1S,3S)-3-((2-(5-(((4-ethoxypyrimidin-2-yl)amino)methyl)-1-methyl-1H-pyrazol-4-yl)-4-ethylpyrimidin-5-yl)oxy)cyclohexane-1-carboxylicacid], the IC50 was determined as 5 nM.

Take `CCc1nc(-c2cnn(C)c2CNc2nccc(OC3CC3)n2)ncc1O[C@H]1CCC[C@H](C(=O)O)C1` [Example 22, (1S,3S)-3-((2-(5-(((4-cyclopropoxy-pyrimidin-2-yl)amino)methyl)-1-methyl-1H-pyrazol-4-yl)-4-ethylpyrimidin-5-yl)oxy)cyclohexane-1-carboxylic acid]: the IC50 is 7 nM.

Turning to `CCCOc1ccnc(NCc2c(-c3ncc(O[C@H]4CCC[C@H](C(=O)O)C4)c(CC)n3)cnn2C)n1` [Example 23, (1S,3S)-3-((4-ethyl-2-(1-methyl-5-(((4-propoxypyrimidin-2-yl)amino)methyl)-1H-pyrazol-4-yl)pyrimidin-5-yl)oxy) cyclohexane-1-carboxylic acid], the IC50 amounted to 2 nM.

With `CCc1nc(-c2cnn(C)c2CNc2nccc(OC)n2)ncc1O[C@H]1CCC[C@H](C(=O)O)C1` [Example 24, (1S,3S)-3-((4-ethyl-2-(5-(((4-methoxypyrimidin-2-yl)amino)methyl)-1-methyl-1H-pyrazol-4-yl)pyrimidin-5-yl)oxy)cyclohexane-1-carboxylic acid], the IC50 came to 350 nM.
